# Results as given in ChEMBL document CHEMBL1152052, “Probing the P3 pocket of stromelysin with piperazic acid analogs” (Bioorg Med Chem Lett, 1995).
# Biological target: Stromelysin-1 (Homo sapiens, UniProt P08254)
# Assay: Inhibition of matrix metalloprotease-3 (MMP-3)
# Sequence of Stromelysin-1 (P08254 whole entry): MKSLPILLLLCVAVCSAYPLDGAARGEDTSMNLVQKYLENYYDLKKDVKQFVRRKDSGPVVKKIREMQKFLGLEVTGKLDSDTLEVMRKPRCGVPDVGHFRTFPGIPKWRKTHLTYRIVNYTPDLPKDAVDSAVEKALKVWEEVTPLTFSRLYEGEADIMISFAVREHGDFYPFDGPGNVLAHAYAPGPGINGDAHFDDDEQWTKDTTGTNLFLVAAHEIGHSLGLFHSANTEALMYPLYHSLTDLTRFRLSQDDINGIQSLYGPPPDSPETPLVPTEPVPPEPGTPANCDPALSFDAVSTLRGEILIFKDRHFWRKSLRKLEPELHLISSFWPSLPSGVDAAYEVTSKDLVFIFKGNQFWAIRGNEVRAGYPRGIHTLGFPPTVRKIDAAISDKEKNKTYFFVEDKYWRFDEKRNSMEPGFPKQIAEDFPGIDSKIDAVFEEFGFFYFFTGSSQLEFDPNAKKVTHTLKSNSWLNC
row,Compound,IC50
1,CC(C)C[C@H](CC(=O)NO)C(=O)N1CCCCN1,9670 nM
2,CC(C)C[C@H](CC(=O)NO)C(=O)N1NCCC[C@H]1CO,2700 nM
3,COC[C@@H]1CCCNN1C(=O)[C@@H](CC(=O)NO)CC(C)C,20400 nM
4,COC(=O)[C@@H]1CCCNN1C(=O)[C@@H](CC(=O)NO)CC(C)C,810 nM

# Now those with a lower IC50, led by results:
row,IC50,Compound
1,300 nM,CCCCC[C@H](CC(=O)NO)C(=O)N1NCCC[C@H]1C(=O)N[C@@H](C(=O)CC)C(C)CC (stereo partly specified)
2,600 nM,CC(C)C[C@H](CC(=O)NO)C(=O)N1NCCC[C@H]1C(=O)O
